Test system: EYFP and BFP expression in HEK293T cells
Experiment: Dual PROTAC-based inducible gene cassettes (EYFP and BFP), microscopy
Type: cell-based, human
Details: MZ1 (100 nM) and dTAG-13 (100 nM) PROTAC-CID systems, FIG. 16A
Experimental: Transfection and microscopy. HEK293T cells (American Type Culture Collection, no. CRL-3216) were cultured with high-glucose Dulbecco's modified Eagle's medium (DMEM) (Thermo Fisher Scientific no. 10569044) with 10% fetal bovine serum (FBS) (Thermo Fisher Scientific no. 10437028) and 1×penicillin-streptomycin (Thermo Fisher Scientific no. 15140122) at 37° C. with 5% CO2. Except for the data in FIGS. 3C, 3E, and 3H, cells were plated into 96 well plate (Corning no. 3598) and transfected by Polyethyleneimine Max (PEI Max) (Polysciences no. 24765-1). 1.5 μL PEI Max (1 mg/mL, pH=7.1) and 100 μl DMEM were mixed with plasmids to be slowly dropped into the cell medium after 30 mins of incubation. Medium was changed 12 hours post-transfection. The inductive small molecules, including Rapamycin (STEM CELL technologies no. 73362), dTAG-13 (TOCRIS no. 6605/5), dTAG^V-1 (TOCRIS no. 6744-5), dBRD9 (TOCRIS no. 6606/5), dTRIM24 (TOCRIS no. 6607/5), MZ1 (TOCRIS no. 6154/5), AT1 (TOCRIS no. 6356/5), TL13-12 (TOCRIS no. 6744/5), TL13-112 (TOCRIS no. 6745/5), dTAG-7 (TOCRIS no. 69125), ZXH3-26 (TOCRIS no. 6713/5) and ABA (GoldBio no. A-050-100), dissolved in Dimethyl sulfoxide (DMSO) (Sigma, no. D8418) were added. For the microscopy observation, the images were taken by Microscopy EVOS (Life Technologies) and processed by ImageJ (Schneider et al., 2012). If not otherwise noted, 60 ng of each plasmid were used for each sample.
The inventors next tested the feasibility of dual PROTAC-based inducible gene cassettes (FIG. 15). In the first cassette, GAL4 was fused with FKBP12^F36V, and VHL was ligated with VPR to drive EYFP expression in response to dTAG^V-1. In the second cassette, TetR was fused with BRD9BD, and CRBN was connected with VPR to drive blue fluorescence protein (BFP) expression in the presence of dBRD9. […] As biological computation relies on the protein or DNA to execute Boolean logic gate operation in living organisms for cell discrimination and disease diagnosis (3, 11, 42), the inventors next explored the possibility of PROTAC-CID enabled logic gate biological computation. By placing EYFP under control of the TRE (Tetracycline response element) and pUAS-1 promoter, the inventors observed strong EYFP expression by using one or two PROTACs, achieving clear logic OR gate responses (FIGS. 2C and 16B). To develop a more sophisticated logic AND gate, the inventors took advantage of two orthogonal site-specific DNA recombinases (Cre and Dre) for biological computation (43). […] In this gene circuit, only in the presence of both dTAG-13 and dBRD9 inducers, Dre and Cre can be expressed to remove their respective “STOP” signals, resulting in the eventual GFP expression as a clear logic AND readout (FIGS. 2D and 16C).

Row | SMILES | gene activation from dual inducible cassettes
1 | Cc1ncsc1-c1ccc(CNC(=O)[C@@H]2C[C@@H](O)CN2C(=O)[C@@H](NC(=O)COCCOCCOCCNC(=O)C[C@@H]2N=C(c3ccc(Cl)cc3)c3c(sc(C)c3C)-n3c(C)nnc32)C(C)(C)C)cc1 [MZ1] | single gene activation with one PROTAC small molecule and dual-gene activation using both PROTACs
2 | CC[C@H](C(=O)N1CCCC[C@H]1C(=O)O[C@H](CCc1ccc(OC)c(OC)c1)c1ccccc1OCC(=O)NCCCCCCOc1cccc2c1C(=O)N(C1CCC(=O)NC1=O)C2=O)c1cc(OC)c(OC)c(OC)c1 (some centres unmarked) [dTAG-13] | single gene activation with one PROTAC small molecule and dual-gene activation using both PROTACs

Reference: patent US20250382631A1, “PROTAC-CID SYSTEMS FOR USE IN MULTIPLEX GENE REGULATION” (William Marsh Rice University, priority 2022, published 2025)
